Reference: US12187662B2, “FOXM1 inhibitor compositions and methods of using the same” (The Board of Trustees of the University of Illinois, priority 2018, dated 2025)
Where two headings read alike, the source gives them in different places.

Tests used:
MCF7 cells = test: Cell proliferation assay (WST-1), MCF7; type: cell-based, human; settings: read-out: IC50 MCF7
Experimental: (§1) All cells were tested for mycoplasma using Real-Time PCR Mycoplasma Detection Kit (Akron Biotech, Boca Raton, FL).
(§2) All assays were performed in triplicate.

[1] = Pharmacokinetic studies in mice after single s.c. or oral dose
DT22 cells = test: Cell proliferation assay (WST-1), DT22; type: cell-based, human; settings: Homo sapiens, DT-22, inhibition of cell proliferation
Experimental: as §1, §2

[2] = Homo sapiens, MCF7, inhibition of cell proliferation
[3] = inhibition of cell proliferation

Row | Compound | IC50 (MCF7 cells; [2]) | further results
1 | Clc1ccc(C(=C2C3CC4CC(C3)CC2C4)c2ccc(OCCCCCCN3CCCCC3)cc2)cc1 [NB-118, 1-(6-(4-((Z)-((5S,7S)-Adamantan-2-ylidene)(4-chlorophenyl)methyl)phenoxy)hexyl)piperidine] | 4400 nM | 
2 | CN1CC[N+](C)(CCCCCCOc2ccc(C(=C3C4CC5CC(C4)CC3C5)c3ccc(OCCCCCC[N+]4(C)CCN(C)CC4)cc3)cc2)CC1 [NB-69, 1,1′-((((((5r,7r)-adamantan-2-ylidene)methylene)bis(4,1-phenylene))bis(oxy))bis(hexane-6,1-diyl))bis(1,4-dimethylpiperazin-1-ium) dimethanesulfonate] | 6000 nM | 
3 | c1cc(C(=C2C3CC4CC(C3)CC2C4)c2ccc(OCCCCN3CCCCC3)cc2)ccc1OCCCCN1CCCCC1 [NB-120, 1,1′-((((((5r,7r)-adamantan-2-ylidene)methylene)bis(4,1-phenylene))bis(oxy))bis(butane-4,1-diyl))dipiperidine] | 900 nM | 
4 | 1-(6-(4-((Z)-((5S,7S)-adamantan-2-ylidene)(4-chlorophenyl)methyl)phenoxy)hexyl)-1-methylazepan-1-ium iodide [NB-85] |  | IC50 (MCF7 cells; [3]): 9800 nM
5 | c1cc(C(=C2C3CC4CC(C3)CC2C4)c2ccc(OCCCCCN3CCCCCC3)cc2)ccc1OCCCCCN1CCCCCC1 [NB-123, 1,1′-((((((5r,7r)-adamantan-2-ylidene)methylene)bis(4,1-phenylene))bis(oxy))bis(pentane-5,1-diyl))bis(azepane)] | 1000 nM | 
6 | Clc1ccc(C(=C2C3CC4CC(C3)CC2C4)c2ccc(OCCCCCCN3CCCCCC3)cc2)cc1 [NB-119, 1-(6-(4-((Z)-((5S,7S)-Adamantan-2-ylidene)(4-chlorophenyl)methyl)phenoxy)hexyl)azepane] | 4200 nM | 
7 | c1cc(C(=C2C3CC4CC(C3)CC2C4)c2ccc(OCCCCN3CCCCCC3)cc2)ccc1OCCCCN1CCCCCC1 [NB-121, 1,1′-((((((5r,7r)-adamantan-2-ylidene)methylene)bis(4,1-phenylene))bis(oxy))bis(butane-4,1-diyl))bis(azepane)] | 1600 nM | 
8 | c1cn(CCCCCCOc2ccc(C(=C3C4CC5CC(C4)CC3C5)c3ccc(OCCCCCCn4ccnc4)cc3)cc2)cn1 [NB-61, 1,1′-((((((5r,7r)-adamantan-2-ylidene)methylene)bis(4,1-phenylene))bis(oxy))bis(hexane-6,1-diyl))bis(1H-imidazole)] | 7500 nM | 
9 | C[n+]1ccn(CCCCCCOc2ccc(C(=C3C4CC5CC(C4)CC3C5)c3ccc(Cl)cc3)cc2)c1 [NB-62, 1-(6-(4-((Z)-((5S,7S)-adamantan-2-ylidene)(4-chlorophenyl)methyl)phenoxy)hexyl)-3-methyl-1H-imidazol-3-ium iodide] | 5500 nM | half-life ([1]; female, CD-1, mouse, plasma, sc, 40 mg/kg): 36.8 h; AUC(0-t) ([1]; female, CD-1, mouse, plasma, sc, 40 mg/kg, PK s.c. AUC0-48, mice, 40 mg/kg s.c.): 150 µM·h; PK p.o. AUC0-48 ([1]; mice, 40 mg/kg p.o.): too low to measure
10 | 1-(6-(4-((Z)-((5S,7S)-adamantan-2-ylidene)(4-chlorophenyl)methyl)phenoxy)hexyl)-1H-imidazole [NB-60] |  | IC50 (MCF7 cells; [3]): 16000 nM
11 | 1-(6-(4-((Z)-((5S,7S)-adamantan-2-ylidene)(4-chlorophenyl)methyl)phenoxy)hexyl)-4-methylpiperazine [NB-64] |  | IC50 (MCF7 cells; [3]): 3000 nM
12 | c1cc(C(=C2C3CC4CC(C3)CC2C4)c2ccc(OCCCCCN3CCCCC3)cc2)ccc1OCCCCCN1CCCCC1 [NB-122, 1,1′-((((((5r,7r)-adamantan-2-ylidene)methylene)bis(4,1-phenylene))bis(oxy))bis(pentane-5,1-diyl))dipiperidine] | 1200 nM | 
13 | (S)-1-(6-(4-((Z)-((5S,7S)-adamantan-2-ylidene)(4-chlorophenyl)methyl)phenoxy)hexyl)-1-methyl-1λ^4-piperidin-2-ylium iodide [NB-84] |  | IC50 (MCF7 cells; [3]): 6000 nM

Further lines, with some results ahead:

Row | IC50 (MCF7 cells; [2]) | Compound | further results
14 | 800 nM | c1cc(C(=C2C3CC4CC(C3)CC2C4)c2ccc(OCCCCCCN3CCC3)cc2)ccc1OCCCCCCN1CCC1 [NB-133, 1,1′-((((((5r,7r)-adamantan-2-ylidene)methylene)bis(4,1-phenylene))bis(oxy))bis(hexane-6,1-diyl))bis(azetidine)] | 
15 | 3600 nM | OCC[N+]1(CCCCCCOc2ccc(C(=C3C4CC5CC(C4)CC3C5)c3ccc(OCCCCCC[N+]4(CCO)CCCCC4)cc3)cc2)CCCCC1 [NB-141, 1,1′-((((((5r,7r)-adamantan-2-ylidene)methylene)bis(4,1-phenylene))bis(oxy))bis(hexane-6,1-diyl))bis(1-(2-hydroxyethyl)piperidin-1-ium) diiodide] | 
16 | 2300 nM | C[N+]1(CCCCCCOc2ccc(C(=C3C4CC5CC(C4)CC3C5)c3ccc(OCCCCCC[N+]4(C)CCC4)cc3)cc2)CCC1 [NB-137, 1,1′-((((((5r,7r)-adamantan-2-ylidene)methylene)bis(4,1-phenylene))bis(oxy))bis(hexane-6,1-diyl))bis(1-methylazetidin-1-ium) diiodide] | 
17 | 900 nM | C[N+]1(CCCCCCOc2ccc(C(=C3C4CC5CC(C4)CC3C5)c3ccc(OCCCCCC[N+]4(C)CCC[C@H]4CO)cc3)cc2)CCC[C@H]1CO (stereo partly drawn) [NB-139, (1R,1′R,2S,2'S)-1,1′-((((((5r,7r)-adamantan-2-ylidene)methylene)bis(4,1-phenylene))bis(oxy))bis(hexane-6,1-diyl))bis(2-(hydroxymethyl)-1-methylpyrrolidin-1-ium) diiodide] | 
18 | 700 nM | OC[C@@H]1CCCN1CCCCCCOc1ccc(C(=C2C3CC4CC(C3)CC2C4)c2ccc(OCCCCCCN3CCC[C@H]3CO)cc2)cc1 [NB-138, ((2S,2'S)-((((((5r,7r)-adamantan-2-ylidene)methylene)bis(4,1-phenylene))bis(oxy))bis(hexane-6,1-diyl))bis(pyrrolidine-1,2-diyl))dimethanol] | PK p.o. AUC0-48 ([1]; mice, 40 mg/kg p.o.): 1.84 µM·h; PK p.o. t1/2 ([1]; mice, 40 mg/kg p.o.): 25.0 h
19 | 900 nM | OCCN(CCO)CCCCCCOc1ccc(C(=C2C3CC4CC(C3)CC2C4)c2ccc(OCCCCCCN(CCO)CCO)cc2)cc1 [NB-131, 2,2′,2″,2″′-(((((((5r,7r)-adamantan-2-ylidene)methylene)bis(4,1-phenylene))bis(oxy))bis(hexane-6,1-diyl))bis(azanetriyl))tetrakis(ethan-1-ol)] | PK p.o. AUC0-48 ([1]; mice, 40 mg/kg p.o.): too low to measure
20 | 1600 nM | OCC[N+]1(CCCCCCOc2ccc(C(=C3C4CC5CC(C4)CC3C5)c3ccc(OCCCCCC[N+]4(CCO)CCCC4)cc3)cc2)CCCC1 [NB-140, 1,1′-((((((5r,7r)-adamantan-2-ylidene)methylene)bis(4,1-phenylene))bis(oxy))bis(hexane-6,1-diyl))bis(1-(2-hydroxyethyl)pyrrolidin-1-ium) diiodide] | 
21 | 900 nM | OC1CN(CCCCCCOc2ccc(C(=C3C4CC5CC(C4)CC3C5)c3ccc(OCCCCCCN4CC(O)C4)cc3)cc2)C1 [NB-145, 1,1′-((((((5r,7r)-adamantan-2-ylidene)methylene)bis(4,1-phenylene))bis(oxy))bis(hexane-6,1-diyl))bis(azetidin-3-ol)] | PK p.o. AUC0-48 ([1]; mice, 40 mg/kg p.o.): too low to measure
22 | 1100 nM | CC[N+](C)(CCO)CCCCCCOc1ccc(C(=C2C3CC4CC(C3)CC2C4)c2ccc(OCCCCCC[N+](C)(CC)CCO)cc2)cc1 (centres unmarked) [NB-134, 6,6′-(((((5r,7r)-adamantan-2-ylidene)methylene)bis(4,1-phenylene))bis(oxy))bis(N-ethyl-N-(2-hydroxyethyl)-N-methylhexan-1-aminium) diiodide] | IC50 (DT22 cells): 1500 nM
23 | 1200 nM | CCN(CCO)CCCCCCOc1ccc(C(=C2C3CC4CC(C3)CC2C4)c2ccc(OCCCCCCN(CC)CCO)cc2)cc1 [NB-130, 2,2′-(((((((5r,7r)-adamantan-2-ylidene)methylene)bis(4,1-phenylene))bis(oxy))bis(hexane-6,1-diyl))bis(ethylazanediyl))bis(ethan-1-ol)] | PK p.o. AUC0-48 ([1]; mice, 40 mg/kg p.o.): too low to measure
24 | 2100 nM | C[N+](CCO)(CCO)CCCCCCOc1ccc(C(=C2C3CC4CC(C3)CC2C4)c2ccc(OCCCCCC[N+](C)(CCO)CCO)cc2)cc1 [NB-135, 6,6′-(((((5r,7r)-adamantan-2-ylidene)methylene)bis(4,1-phenylene))bis(oxy))bis(N,N-bis(2-hydroxyethyl)-N-methylhexan-1-aminium) diiodide] | 
25 | 1000 nM | C[N+]1(CCCCCCOc2ccc(C(=C3C4CC5CC(C4)CC3C5)c3ccc(OCCCCCC[N+]4(C)CCC(O)CC4)cc3)cc2)CCC(O)CC1 (centres unmarked) [NB-136, 1,1′-((((((5r,7r)-adamantan-2-ylidene)methylene)bis(4,1-phenylene))bis(oxy))bis(hexane-6,1-diyl))bis(4-hydroxy-1-methylpiperidin-1-ium) diiodide] | 
26 | 1100 nM | CC1(O)CN(CCCCCCOc2ccc(C(=C3C4CC5CC(C4)CC3C5)c3ccc(OCCCCCCN4CC(C)(O)C4)cc3)cc2)C1 [NB-143, 1,1′-((((((5r,7r)-adamantan-2-ylidene)methylene)bis(4,1-phenylene))bis(oxy))bis(hexane-6,1-diyl))bis(3-methylazetidin-3-ol)] | 
27 | 1800 nM | CC1(O)C[N+](C)(CCCCCCOc2ccc(C(=C3C4CC5CC(C4)CC3C5)c3ccc(OCCCCCC[N+]4(C)CC(C)(O)C4)cc3)cc2)C1 (centres unmarked) [NB-144, 1,1′-((((((5r,7r)-adamantan-2-ylidene)methylene)bis(4,1-phenylene))bis(oxy))bis(hexane-6,1-diyl))bis(3-hydroxy-1,3-dimethylazetidin-1-ium) diiodide] | 
28 | 1600 nM | OC1CCN(CCCCCCOc2ccc(C(=C3C4CC5CC(C4)CC3C5)c3ccc(OCCCCCCN4CCC(O)CC4)cc3)cc2)CC1 [NB-132, 1,1′-((((((5r,7r)-adamantan-2-ylidene)methylene)bis(4,1-phenylene))bis(oxy))bis(hexane-6,1-diyl))bis(piperidin-4-ol)] | 
29 | 2400 nM | OCC[N+]1(CCCCCCOc2ccc(C(=C3C4CC5CC(C4)CC3C5)c3ccc(OCCCCCC[N+]4(CCO)CCCCCC4)cc3)cc2)CCCCCC1 [NB-142, 1,1′-((((((5r,7r)-adamantan-2-ylidene)methylene)bis(4,1-phenylene))bis(oxy))bis(hexane-6,1-diyl))bis(1-(2-hydroxyethyl)azepan-1-ium) diiodide] | 
